Data taken from patent US20040247674A1, “Drug delivery system” (priority 2001, published 2004).

Assay: release rates of active agents from core-membrane implants
Type: physicochemical
Conditions: for release rate over time: Example 4 implant (FIG. 12): membrane PDMS/trifluoropropyl modified PDMS, fluoro-content 55 wt-%, thickness 0.25 mm
Text: The implant structure was as disclosed in FIG. 2. The first part of the core consisted of PDMS comprising levonorgestrel and the length was 35 mm. The second part of the core consisted of PEO-PDMS having 50% of PEO, comprising estradiol, and the length was 8 mm.
The core parts were encased in a membrane consisting of PEO-PDMS in a ratio of 10:90. The thickness of the membrane was 0.2 mm and the outer diameter of the implant 2.48 mm.
The implant structure was as disclosed in FIG. 2. The first part of the core consisted of PEO-PDMS in a ratio of 50:50 comprising compound 1 and the length was 34 mm. The second part of the core consisted of PEO-PDMS having 50% of PEO, comprising estradiol, and the length was 6 mm.
The core parts were encased in a membrane consisting of PEO-PDMS in a ratio of 20:80. The thickness of the membrane was 0.2 mm and the outer diameter of the implant 2.48 mm.
The implant structure was as disclosed in FIG. 2. The first part of the core consisted of Pt-catalysed PDMS comprising 60 weight-% MENT having a length of 44 mm and a diameter of 3.0 mm. The second part of the core consisted of peroxide-catalysed PDMS comprising 50 weight-% gestodene having a length of 12 mm and a diameter of 3.0 mm.
Both core parts were encapsulated by a membrane consisting of a mixture of PDMS and trifluoropropyl modified PDMS. The fluoro-content in the membrane varied from 55 weight-% to 75 weight-%. The thickness of the membrane was 0.25 or 0.35 mm and thus the outer diameter of the implant 3.5 or 3.7 mm, respectively.
MENT is represented by the trinagles and gestodene by the lozenges.

SMILES	release rate over time	release rate of compound 1 versus target (Example 2 implant (FIG. 10): PEO-PDMS 50:50 core part 34 mm, membrane PEO-PDMS 20:80, 0.2 mm, target 50 μg/day)	release rate of gestodene, membrane thickness 0.25 mm compared with 0.35 mm (Example 4 implant (FIG. 14): membrane fluoro-content 60 wt-%)
C[C@@H]1CC2=CC(=O)CC[C@@H]2[C@H]2CC[C@]3(C)[C@@H](O)CC[C@H]3[C@@H]21 [MENT, 7-α-methyl-19-nortestosterone]	essentially constant over time	–	–
CC(=O)c1ccc(C2C[C@@]3(C)[C@@H](CCC3(O)C(F)(F)C(F)(F)F)[C@@H]3CCC4=CC(=O)CCC4=C23)cc1 (stereo partly shown) [compound 1, 11-(4-Acetylphenyl)-17-hydroxy-17-(1,1,2,2,2-pentafluoroethyl)estra-4,9-dien-3-one]	–	target release rates were obtained	–
C#C[C@]1(O)C=C[C@H]2[C@@H]3CCC4=CC(=O)CC[C@@H]4[C@H]3CC[C@@]21CC [gestodene]	essentially constant over time	–	higher
